# Experimental data: patent publication US7897614B2, “Preventive agent/remedial agent for constipation predominant IBS” (Mitsubishi Tanabe Pharma Corporation, priority 2001, dated 2011)
# “Also recorded” adds a separate entry of the source.
# Assays:
# [1] = tested on: IBS patients; settings: score 2 = marginal improvement, 3 = small improvement; Br J Pharm Pract 1987; cited from earlier work
# [2] = tested on: patients suffering from constipation predominant IBS; assay: Double blind clinical test in patients with constipation predominant IBS (Rome II criteria); assay type: in vivo, human
# From the text: Clinical effects of the medicament of the present invention on patients suffering from constipation predominant IBS were studied (in accordance with Rome II diagnosis criteria).
# The test conducted here was a double blind test by two groups. […] Administration period consisted of 2-week screening and 4 week treatment. […] In addition, an ameliorating ratio of each symptom, that is, stool state, difficulty in defecation, feeling of residual stool after defecation, abdominal bloating, abdominal discomfort and abdominal pain is shown in FIG. 1
# [3] = 0.2 mg twice a day, 4 week treatment, 9 patients in the group
Compound,Mean subjective score [1],"Ameliorating ratio of each symptom (stool state, difficulty in defecation, residual stool feeling, abdominal bloating, discomfort, pain), FIG. 1 ([2]; 0.2 mg group compared with placebo group)","Total impression of the patients: Aggravated (number of patients) [2, 3]","Total impression of the patients: Highly effective (number of patients) [2, 3]","Total impression of the patients: Moderately effective (number of patients) [2, 3]","Total impression of the patients: Not effective (number of patients) [2, 3]","Total impression of the patients: Slightly effective (number of patients) [2, 3]","Effectiveness relative to the placebo group ([2]; 0.2 mg twice a day, 4 weeks)","Ratio of effectiveness (total percentage of highly effective and moderately effective cases) ([2]; 0.2 mg twice a day, 4 weeks, placebo group 30%) [%]"
sennoside,2.7,,,,,,,,
"O=C(N[C@H]1CN2CCC1CC2)c1cnc2ccsc2c1O [the medicament of the present invention, (R)-N-(1-azabicyclo[2.2.2]oct-3-yl)-7-hydroxythieno[3,2-b]-pyridine-6-carboxamide]",,exhibited an ameliorating ratio exceeding the placebo group in any symptoms,0,0,5,2,2,about twice; also recorded: about two fold,56
